Results as given in patent publication US8008258B2, “Cop 1 for treatment of inflammatory bowel diseases” (Yeda Research and Development Co. Ltd., priority 2003, dated 2011).
Marks after values point to notes of the source that are not given here.

Test system: TNBS-induced colitis
Assay: TNBS-induced colitis in BALB/c mice, oral GA treatment
Format: in vivo
Design: key to Macroscopic scoring of colon damage: Ulceration (max 10): 0 = completely normal, 10 = most severe ulceration; key to Macroscopic scoring of colon damage: Adhesion (max 2): adhesions score 0 to 2; key to Macroscopic scoring of colon damage: Diarrhea (max 1): diarrhea score 0 to 1; key to Macroscopic scoring of colon damage: Thickness (max 1): thickness score 0 to 1
Experimental: Induction of cholitis in mice. TNBS-colitis was induced by rectal instillation of 2,4,6-trinitrobenzene sulfonic acid 5% (w/v), mixed with an equal volume of ethanol, into anesthetized mice (100 μl/mouse). Each treatment group included 6-12 mice. Mice that died before day 4 were considered as treatment casualties and were not taken into consideration.
Assessment of colitis. Weight changes and survival were monitored daily. Five to eight days following TNBS instillation, mice were sacrificed and macroscopic as well as microscopic colonic damage was evaluated.
Macroscopic colonic scoring. Gross colonic damage was graded according to Reuter et al. (1996), using the combined values of the four standard macroscopic parameters: degree of colonic ulcerations (scale from 0—completely normal, to 10—most severe); intestinal and peritoneal adhesions (0 to 2); diarrhea (0 to 1); and thickness (0 to 1). The total score is the arithmetic sum of the four scores. The evaluation was performed in a blind procedure.
Microscopic scoring. Proximal, medial, and distal portions of colon were fixed in 10% phosphate-buffered formalin. Paraffin-embedded sections were stained with hematoxylin and eosin. The degree of histological damage and inflammation was graded according to Elson et al. (1996) using the combined values of the four microscopic parameters: extent (scale from 0—completely normal, to 2—involving more than one segment); inflammation (0—none to 3—severe); damage (0 to 3—severe transmural); and regeneration (0—complete re-eptihelization to 3—none). The total score is the arithmetic sum of the four scores. The evaluation was performed in a blind procedure.
Oral treatment—250 μg/day in PBS, fed by gastric intubation with an 18-gauge stainless steel feeding needle. Unless otherwise stated, feedings were performed on days-7, -5, -3, -1, 0, 2, 4 and 6, relative to the day of TNBS instillation.
Colitis was induced by TNBS in 50% ethanol. […] Colonic scoring was performed 7 or 8 days after disease induction. Mice that died during the first 2 days (usually around 20% in all groups) were considered as treatment casualties and thus are not presented; each group contained 4-7 mice that survived after day 2.

[1] = Average of three experiments, GA oral 250 μg/mouse every other day from day −7, scoring 7 or 8 days after induction
[2] = Exp. No. 1, GA oral 250 μg/mouse every other day from day −7, scoring 7 or 8 days after induction
[3] = Exp. No. 2, GA oral 250 μg/mouse every other day from day −7, scoring 7 or 8 days after induction
[4] = Exp. No. 3, GA oral 250 μg/mouse every other day from day −7, scoring 7 or 8 days after induction
[5] = GA no colitis (GA oral without TNBS induction)
[6] = Timing study, GA oral 250 μg/mouse every other day starting day 0, 8 feedings
[7] = Timing study, GA oral 250 μg/mouse every other day starting day +2, 6 feedings
[8] = Timing study, GA oral 250 μg/mouse every other day starting day −3, 8 feedings
[9] = Timing study, GA oral 250 μg/mouse every other day starting day −7, 8 feedings

glatiramer acetate [GA]
Macroscopic scoring of colon damage: Adhesion (max 2) [1]: 0.4
Macroscopic scoring of colon damage: Diarrhea (max 1) [1]: 0.2
Macroscopic scoring of colon damage: Thickness (max 1) [1]: 0.0
Macroscopic scoring of colon damage: Ulceration (max 10) [1]: 2.1
Macroscopic scoring of colon damage: Adhesion (max 2) [2]: 0.6
Macroscopic scoring of colon damage: Diarrhea (max 1) [2]: 0.0
Macroscopic scoring of colon damage: Thickness (max 1) [2]: 0.0
Macroscopic scoring of colon damage: Total Score (max 14) [2]: 1.6*
Macroscopic scoring of colon damage: Ulceration (max 10) [2]: 1.0
Macroscopic scoring of colon damage: Adhesion (max 2) [3]: 0.5
Macroscopic scoring of colon damage: Diarrhea (max 1) [3]: 0.5
Macroscopic scoring of colon damage: Thickness (max 1) [3]: 0.0
Macroscopic scoring of colon damage: Total Score (max 14) [3]: 4.4*
Macroscopic scoring of colon damage: Ulceration (max 10) [3]: 3.4
Macroscopic scoring of colon damage: Adhesion (max 2) [4]: 0.1
Macroscopic scoring of colon damage: Diarrhea (max 1) [4]: 0.0
Macroscopic scoring of colon damage: Thickness (max 1) [4]: 0.0
Macroscopic scoring of colon damage: Total Score (max 14) [4]: 2.1*
Macroscopic scoring of colon damage: Ulceration (max 10) [4]: 2.0
Macroscopic scoring of colon damage: Adhesion (max 2) [5]: 0.0
Macroscopic scoring of colon damage: Diarrhea (max 1) [5]: 0.0
Macroscopic scoring of colon damage: Thickness (max 1) [5]: 0.0
Macroscopic scoring of colon damage: Total Score (max 14) [5]: 0.0
Macroscopic scoring of colon damage: Ulceration (max 10) [5]: 0.0
Reduction in disease severity (total macroscopic score) versus control (GA oral feedings started seven days before TNBS, total of 8 feedings every other day): 5.2 fold
Reduction in disease severity (total macroscopic score) versus control (GA oral treatment started on the day of TNBS inoculation, or two days after disease induction): 2.2 fold
Reduction in disease severity (total macroscopic score) versus control (GA oral treatment started three days before induction): 2.75 fold
Mortality due to the disease process (GA oral, 8 days after induction): 20%
Reduction of average histological score versus colitis group (GA oral, day 7, p=0.007): 2.8 folds
Average histological score (from a maximal score of 12.0) (GA oral, mice surviving till day 7): 2.8
Histological or macroscopic damage (GA treatment without TNBS induction): did not result in any histological or macroscopic damage
Macroscopic scoring of colon damage: Adhesion (max 2) [6]: 0.7
Macroscopic scoring of colon damage: Diarrhea (max 1) [6]: 0.0
Macroscopic scoring of colon damage: Thickness (max 1) [6]: 0.0
Macroscopic scoring of colon damage: Total Score (max 14) [6]: 5.0*
Macroscopic scoring of colon damage: Ulceration (max 10) [6]: 4.3
Macroscopic scoring of colon damage: Adhesion (max 2) [7]: 0.3
Macroscopic scoring of colon damage: Diarrhea (max 1) [7]: 0.0
Macroscopic scoring of colon damage: Thickness (max 1) [7]: 0.0
Macroscopic scoring of colon damage: Total Score (max 14) [7]: 5.0*
Macroscopic scoring of colon damage: Ulceration (max 10) [7]: 4.7
Macroscopic scoring of colon damage: Adhesion (max 2) [8]: 0.5
Macroscopic scoring of colon damage: Diarrhea (max 1) [8]: 0.0
Macroscopic scoring of colon damage: Thickness (max 1) [8]: 0.0
Macroscopic scoring of colon damage: Total Score (max 14) [8]: 4.0*
Macroscopic scoring of colon damage: Ulceration (max 10) [8]: 3.5
Macroscopic scoring of colon damage: Adhesion (max 2) [9]: 0.1
Macroscopic scoring of colon damage: Diarrhea (max 1) [9]: 0.0
Macroscopic scoring of colon damage: Thickness (max 1) [9]: 0.0
Macroscopic scoring of colon damage: Total Score (max 14) [9]: 2.1*
Macroscopic scoring of colon damage: Ulceration (max 10) [9]: 2.0
Decrease of total macroscopic damage versus control (average of three experiments, GA oral 250 μg/mouse, alternate days from day −7, 8 feedings): 3.8 fold
Macroscopic grade of representative colons (FIG. 1A) (colons from two TNBS-induced mice treated orally with GA (0.25 mg/mouse, 8 feedings), 7 days after TNBS, focal hyperemia only): 1
Maximum weight loss (of body weight) (mice fed with GA, by day 3 after TNBS inoculation): 5%
Complete restoration of original weight (mice fed with GA, day after TNBS inoculation): ≤ 5 days
